Measurements: patent US12180187B2, “1-phenyl-5-azinylpyrazolyl-3-oxyalkyl acids and their use for controlling unwanted plant growth” (BAYER AKTIENGESELLSCHAFT, priority 2019, dated 2024)

Legend:
ECHCG = test: Pre-emergence action against ECHCG, 1280 g/ha; assay type: in vivo, Echinochloa crus-galli; settings: visual scoring after about 3 weeks vs untreated controls, 100% = plants have died, 0% = like control plants
Outline: (§1)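 Weed seeds sown in sandy loam in pots, covered with soil; compound as WP or EC applied to soil surface as aqueous suspension/emulsion with 0.5% additive at 600 L/ha water. Greenhouse, good growth conditions; visual % damage vs untreated controls after about 3 weeks (100% = plants dead, 0% = like control).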

POAAN [1] = test: Pre-emergence action against POAAN, 1280 g/ha; assay type: in vivo, Poa annua; settings: visual scoring after about 3 weeks vs untreated controls, 100% = plants have died, 0% = like control plants
Outline: as §1

SETVI [2] = test: Pre-emergence action against SETVI, 1280 g/ha; assay type: in vivo, Setaria viridis; settings: visual scoring after about 3 weeks vs untreated controls, 100% = plants have died, 0% = like control plants
Outline: as §1

AMARE [3] = test: Pre-emergence action against AMARE, 1280 g/ha; assay type: in vivo, Amaranthus retroflexus; settings: scored visually after about 3 weeks vs untreated controls (100% = plants have died)
Outline: as §1

MATIN = test: Pre-emergence action against MATIN, 1280 g/ha; assay type: in vivo, Tripleurospermum inodorum (Matricaria inodora); settings: scored visually after about 3 weeks vs untreated controls (100% = plants have died)
Outline: as §1

STEME = test: Pre-emergence action against STEME, 1280 g/ha; assay type: in vivo, Stellaria media; settings: scored visually after about 3 weeks vs untreated controls (100% = plants have died)
Outline: as §1

ALOMY = test: Pre-emergence action at 320 g/ha against ALOMY; assay type: in vivo, Alopecurus myosuroides; settings: scored visually after about 3 weeks vs untreated controls (100% = plants have died)
Outline: (§2)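 Sow seeds, cover with soil, spray soil surface (WP/EC, 0.5% additive, 600 l/ha water), hold in greenhouse ~3 wk, then rate % activity visually against untreated controls.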

DIGSA = test: Pre-emergence action at 320 g/ha against DIGSA; assay type: in vivo, Digitaria sanguinalis; settings: visual scoring after about 3 weeks vs untreated controls
Outline: as §2

SETVI [4] = test: Pre-emergence action at 320 g/ha against SETVI; assay type: in vivo, Setaria viridis; settings: visual scoring after about 3 weeks vs untreated controls
Outline: as §2

AMARE [5] = test: Pre-emergence action at 320 g/ha against AMARE; assay type: in vivo, Amaranthus retroflexus; settings: visual scoring after about 3 weeks vs untreated controls
Outline: as §2

POLCO = test: Pre-emergence action at 320 g/ha against POLCO; assay type: in vivo, Fallopia convolvulus (Polygonum convolvulus); settings: visual scoring after about 3 weeks vs untreated controls
Outline: as §2

POAAN [6] = test: Post-emergence action against POAAN, 1.28 kg/ha; assay type: in vivo, Poa annua; settings: dosage 1280 g/ha, visual rating about 3 weeks after treatment vs untreated controls
Outline: (§3)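 Post-emergence greenhouse spray, one-leaf stage (2–3 wk after sowing), sandy loam. WP/EC, aqueous + 0.5% additive, 600 L/ha water. Visual % activity vs untreated, ~3 wk after treatment; 100% = plants dead.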

ABUTH = test: Post-emergence action against ABUTH, 1.28 kg/ha; assay type: in vivo, Abutilon theophrasti; settings: dosage 1280 g/ha, visual rating about 3 weeks after treatment vs untreated controls (100% = plants died)
Outline: as §3

SETVI [7] = test: Post-emergence action at 320 g/ha against SETVI; assay type: in vivo, Setaria viridis; settings: visual rating about 3 weeks after treatment vs untreated controls
Outline: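 Activity is a visual rating against untreated controls, with 0% like control and 100% dead plants, made about 3 weeks after treatment. Plants grown in sandy loam in the greenhouse received a post-emergence spray at the one-leaf stage of 320 g/ha, formulated as WP or EC with 0.5% additive in 600 l/ha water.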

Row | SMILES | Pre-emergence action against ECHCG (ECHCG) [%] | Pre-emergence action against POAAN (POAAN [1]) [%] | Pre-emergence action against SETVI (SETVI [2]) [%] | Pre-emergence action against AMARE (AMARE [3]) [%] | Pre-emergence action against MATIN (MATIN) [%] | Pre-emergence action against STEME (STEME) [%] | Pre-emergence action at 320 g/ha against ALOMY in % (ALOMY) [%] | Pre-emergence action against DIGSA in % (DIGSA) [%] | Pre-emergence action against SETVI in % (SETVI [4]) [%] | Pre-emergence action against AMARE in % (AMARE [5]) [%] | Pre-emergence action against POLCO in % (POLCO) [%] | Post-emergence action against POAAN (POAAN [6]) [%] | Post-emergence action against SETVI in % (SETVI [7]) [%] | other results
1 | COC(=O)CNC(=O)COc1nn(-c2ccccc2F)c(-c2ccc(F)nc2)c1Br [Example X-002] | 90 | 100 | 100 | 100 | 90 | 100 | 100 | 100 | 100 | 100 | 100 | 100 | 90 | Post-emergence action against ABUTH (ABUTH): 90%
2 | CS(=O)(=O)NC(=O)COc1nn(-c2ccccc2F)c(-c2ccc(F)nc2)c1Br [Example X-004] | 100 | 100 | 100 | 100 | 100 | 100 | 100 | 100 | 100 | 90 | 90 | 100 | 90 | –
3 | COC(=O)[C@@H](C)Oc1nn(-c2ccccc2F)c(-c2cncnc2)c1Br [VI-011, Methyl (2R)-2-{[4-bromo-1-(2-fluorophenyl)-5-(pyrimidin-5-yl)-1H-pyrazol-3-yl]oxy}propanoate] | – | – | – | – | – | – | – | – | – | – | – | – | 90 | pest or weed control at 1280 g/ha (ECHCG; Echinochloa crus-galli, 504 h): 100%; pest or weed control at 1280 g/ha (POAAN [1]; Poa annua, 504 h): 100%; pest or weed control at 1280 g/ha (SETVI [2]; Setaria viridis, 504 h): 100%; pest or weed control at 1280 g/ha (AMARE [3]; Amaranthus retroflexus, 504 h): 100%; pest or weed control at 1280 g/ha (MATIN; Tripleurospermum inodorum, 504 h): 90%; pest or weed control at 1280 g/ha (STEME; Stellaria media, 504 h): 100%; pest or weed control at 320 g/ha (ALOMY; Alopecurus myosuroides, 504 h): 100%; pest or weed control at 320 g/ha (DIGSA; Digitaria sanguinalis, 504 h): 100%; pest or weed control at 320 g/ha (SETVI [4]; Setaria viridis, 504 h): 100%; pest or weed control at 320 g/ha (AMARE [5]; Amaranthus retroflexus, 504 h): 100%; pest or weed control at 320 g/ha (POLCO; Fallopia convolvulus, 504 h): 80%; pest or weed control at 1280 g/ha (POAAN [6]; Poa annua, 504 h): 100%
4 | C[C@@H](Oc1nn(-c2ccccc2F)c(-c2cncnc2)c1Br)C(=O)O [VI-012] | 90 | 100 | 100 | 100 | 90 | 100 | 90 | 100 | 100 | 100 | 80 | 100 | 90 | –
5 | COC(=O)C(C)Oc1nn(-c2ccccc2)c(-c2ccc(F)nc2)c1Br (stereo not drawn) [VII-014] | 90 | 100 | 100 | 100 | 90 | 100 | 100 | 100 | 100 | 90 | 90 | 100 | 100 | –
6 | CCOC(=O)C(C)Oc1nn(-c2ccccc2F)c(-c2ccc(F)nc2)c1Br (stereo not drawn) [VII-019] | 100 | 100 | 100 | 100 | 90 | 100 | 100 | 100 | 100 | 100 | 100 | 100 | 80 | –
7 | CCOC(=O)C(C)Oc1nn(-c2ccccc2F)c(-c2ccc(F)nc2)c1I (stereo not drawn) [VII-057] | 100 | 100 | 100 | 100 | 100 | 100 | 100 | 100 | 90 | 100 | 90 | 100 | 80 | –
8 | O=C(COc1nn(-c2ccccc2F)c(-c2ccc(F)nc2)c1Br)OCC1OCCO1 [VII-103] | 100 | 100 | 100 | 100 | 100 | 100 | 100 | 100 | 100 | 100 | 100 | 100 | 80 | –
9 | CCOC(=O)COc1nn(-c2ccccc2F)c(-c2ccc(F)nc2)c1C [VII-117] | 100 | 100 | 100 | 100 | 100 | 90 | 100 | 100 | 100 | 100 | 100 | 100 | 80 | –
10 | O=C(O)COc1nn(-c2ccccc2F)c(-c2ccnc(F)c2)c1Br [VIII-004] | 100 | 100 | 100 | 100 | 100 | 100 | 100 | 100 | 90 | 100 | 90 | 100 | 80 | –
11 | COC(=O)[C@@H](C)Oc1nn(-c2ccccc2F)c(-c2ccnc(F)c2)c1Br [VIII-006] | 100 | 100 | 100 | 100 | 100 | 100 | 100 | 100 | 100 | 100 | 90 | 100 | 90 | –
